# Test results reported in patent US11298372B2, “Composition for ameliorating loss of hair and graying of hair, and use thereof” (National University Corporation Tokyo Medical and Dental …, priority 2016, dated 2022).
# Tests used:
# [1] = test system: Col17A1; experiment: Induction of COL17A1 expression in HaCat cells (Western blotting); format: cell-based, human; conditions: 48 hours
# Procedure: HaCat cells (human epidermal keratinocyte strain) were seeded in 10% FBS-containing D-MEM medium in a 6-well plate at 1×10^5 cells per well, and apocynin was added to be 1-60 μM. After 48 hours of culturing, an anti-Col17A1 antibody was used as the primary antibody, and Western blotting was carried out. An anti-GAPDH antibody was used as the internal control. The 180 KDa band of Col17A1 and the internal control GAPDH band were quantified for their densities using an LAS-3000 luminescence image analyzer. […] HaCat cells (human epidermal keratinocyte strain) were seeded in 10% FBS-containing D-MEM medium in a 6-well plate at 1×10^5 cells per well, and ascorbic acid (Wako Pure Chemical Industries, Ltd.) was added to be 0.3-60 jag/ml. After 48 hours of culturing, an anti-Col17A1 antibody was used as the primary antibody, and Western blotting was carried out. An anti-β-tubulin antibody was used as the internal control. The 180 KDa band of Col17A1 and the internal control β-tubulin band were quantified for their densities using an LAS-3000 luminescence image analyzer. […] HaCat cells (human epidermal keratinocyte strain) were seeded in 10% FBS-containing D-MEM medium in a 6-well plate at 1×10^5 cells per well, and Marimastat (MMP inhibitor) was added to be 3 μM. After 48 hours of culturing, an anti-Col17A1 antibody was used as the primary antibody, and Western blotting was carried out. An anti-β-tubulin antibody was used as the internal control. The 180 KDa band of Col17A1 and the internal control β-tubulin band were quantified for their densities using an LAS-3000 luminescence image analyzer.
# [2] = test system: irradiated mice; experiment: Test of intradermal administration in irradiated mice; format: in vivo, mouse; conditions: 7-week-old male C57BL/6NCrSlc mice, 5 Gy, 5 mg/ml in DMSO 200 μl (1000 μg) intradermally once a day, 5 times
# Procedure: The hair on the lower back of 7-week-old male C57BL/6NCrSlc mice was removed. Sivelestat was dissolved in DMSO to be 5 mg/ml and 200 μl (=1000 μg) thereof was administered intradermally on back of the sivelestat group mice. On the back of the control group mice, 200 μl of DMSO was administered intradermally. After intradermal administration, the skin of the two groups of mice (day 0) was irradiated with a low voltage radiation of 5 Gy using CABINET X-RAY SYSTEM (Faxitron X-ray corporation). Up to day 4, the same medicinal agents described above were intradermally administered on the back once a day (for a total of 5 times), and weekly follow-ups were carried out after that.
# [3] = test system: irradiated mice; experiment: Application test on the back of irradiated mice; format: in vivo, mouse; conditions: 7-week-old male C57BL/6NCrSlc mice, 5 Gy, 10 mg/ml in DMSO 125 μl applied on the back once a day, 5 times
# Procedure: The hair on the lower back of 7-week-old male C57BL/6NCrSlc mice was removed. Sivelestat was dissolved in DMSO to be 10 mg/ml and 125 μl (=[…]) thereof was applied on the back of the sivelestat group mice. On the back of the control group mice, 125 μl of DMSO was applied. After application on the back, the skin of the two groups of mice (day 0) was irradiated with a low voltage radiation of 5 Gy using CABINET X-RAY SYSTEM (Faxitron X-ray Corporation). Up to day 4, the same medicinal agents described above were applied on the back once a day (for a total of 5 times), and weekly follow-ups were carried out after that.
# [4] = test system: aged mice; experiment: Comparison of the hair-increasing effects of apocynin and minoxidil in aged mice; format: in vivo, mouse; conditions: 17-month-old female C57BL/6NCrSIc mice, 100 μl of 200 μM solution applied for 28 days, day 14; comparator Ri-UP X5 PLUS (minoxidil 5 g/100 ml)
# Procedure: Apocynin (A727200; Tront Research Chemicals) was adjusted to the concentration of 20 mM with DMSO, and 200 LM apocynin solution (1% apocynin 20 mM, 49% water, 50% ethanol) was prepared as the solution to be applied on mice. As the control solution, 1% DMSO (Sigma Aldrich), 49% water, 50% ethanol was prepared. For the minoxidil solution, Ri-UP X5 PLUS® (5 g/100 ml, Taisho Pharmaceutical Co., Ltd.) was used. After six 17-month-old female C57BL/6[…] mice were anesthetized by inhalation of isoflurane (Pfizer), the hair on the back of the neck was removed. The three mice in the minoxidil treatment group were applied with 100 μl of minoxidil, and the apocynin treatment group with 100 μl of the 200 μM apocynin solution for 28 days. For the follow-ups, photo images of the representative first day (day 1) and the last day (day 28) are shown (FIG. 12).
# [5] = test system: aged mice; experiment: Hair-increasing effect in aged mice (application on the back of the neck); format: in vivo, mouse; conditions: 26-27-month-old female C57BL/6NCrSlc mice, 100 μl of 200 μM solution applied for 28 days, day 28
# Procedure: Apocynin (A727200; Tront Research Chemicals) was adjusted to the concentration of 20 mM with DMSO, and 200 LM apocynin solution (1% apocynin 20 mM, 49% water, 50% ethanol) was prepared as the solution to be applied on mice. As the control solution, 1% DMSO (Sigma Aldrich), 49% water, 50% ethanol was prepared. After an anesthetic procedure was performed on five 27-month-old and one 26-month-old female C57BL/6[…] mice, hair on the back of the neck was removed. The three mice in the control solution treatment group were applied with 100 μl of the control solution, and the apocynin solution treatment group with 100 μl of the 200 μM apocynin solution for 28 days. For the follow-ups, photo images of the representative first day (day 1) and the last day (day 28) are shown (FIG. 11).
structure (smiles),measurement,setting,value
CNC(=O)[C@@H](NC(=O)[C@H](CC(C)C)[C@H](O)C(=O)NO)C(C)(C)C [Marimastat],"Col17A1 expression (180 KDa band, Western blotting)","[1]; Marimastat 3 μM, β-tubulin internal control",increase of Col17A1 was observed
"CC(C)(C)C(=O)Oc1ccc(S(=O)(=O)Nc2ccccc2C(=O)NCC(=O)[O-])cc1.O.O.O.O.[Na+] [Sivelestat, Monosodium N-{2-[4-(2,2-dimethylpropanoyloxy)-phenylsulfonylamino]benzoyl}aminoacetate tetrahydrate]",hair growth versus control group,[2],tendency to grow more
same,graying,[2]; 14 weeks and 28 weeks,suppression of graying was seen
same,hair growth versus control group,[3],tendency to grow faster
same,graying,[3]; 14 weeks and 28 weeks,suppression of graying was seen
COc1cc(C(C)=O)ccc1O [apocynin],hair growth effect versus minoxidil,[4],significant hair growth effect compared to the minoxidil-administered group
same,hair growth effect versus control solution,[5],significant hair growth effect compared to the control group
same,"Col17A1 expression (180 KDa band, Western blotting)","[1]; apocynin 1-60 μM, GAPDH internal control",increase of Col17A1 was observed along with the increase of apocynin
O=C1O[C@H]([C@@H](O)CO)C(O)=C1O [ascorbic acid],"Col17A1 expression (180 KDa band, Western blotting)","[1]; ascorbic acid 0.3-60 jag/ml, β-tubulin internal control",increase of Col17A1 was observed along with the increase of ascorbic acid
